{"source": "patent US12628820B2", "about": "“Systems and methods for preservation of cells” (UNIVERSITY OF LOUISVILLE RESEARCH FOUNDATION, Inc., priority 2017, dated 2026)", "key": {"red blood cells": {"system": "red blood cells", "assay": "Microscopy of dried red blood cells after rehydration", "assay_type": "cell-based", "conditions": "after loading with trehalose; confocal image", "method": "FIG. 5A-B includes microscopic images of dried red blood cells without trehalose (A) and after loading with trehalose (B).\n(§1) In vitro experiments have been performed to validate the methods and systems described herein. Briefly, a 0.5 mL solution containing pig or human RBCs, 200 mM trehalose, and microbubbles was placed in a conical tube and sonicated with a 2.5-MHz clinical ultrasound probe for 70 seconds (Philips 4-1 on a Verasonics Vantage 64LE ultrasound imaging system). […] Following sonication, samples were dried (FIG. 5A-B), frozen at −80° C., or freeze-dried for 1 week. Upon thawing or rehydration, the percentage of structurally intact RBCs was counted (FIG. 6A-B). Cell recovery rates of up to 85% were achieved after freezing/thawing, compared to less than 40% without sonoporation. Cell recovery rates of up to 12% were achieved after freeze-drying/rehydration, compared to 0% without sonoporation. Although the recovery is still low, this was believed to be a significant result given that not a single RBC was recovered from freeze-dried samples that had not been treated with sonoporation. […] The microfluidic sonoporation device can further improve the recovery rates by enabling consistent and precise trehalose delivery to each cell. This device is also effective in processing RBCs for long-term preservation in a frozen or freeze-dried state."}, "RBCs [1]": {"system": "RBCs", "assay": "Recovery of RBCs following freezing/thawing", "assay_type": "cell-based, pig or human", "conditions": "for cell recovery rate (structurally intact RBCs) after freezing/thawing: frozen at -80° C.", "method": "as §1"}, "RBCs [2]": {"system": "RBCs", "assay": "Recovery of RBCs 24 hours after sonoporation (toxicity)", "assay_type": "cell-based, pig or human", "conditions": "200 mM trehalose, microbubbles, 2.5-MHz ultrasound 70 seconds", "method": "as §1"}, "RBCs [3]": {"system": "RBCs", "assay": "Recovery of RBCs following freeze-drying/rehydration", "assay_type": "cell-based, pig or human", "method": "as §1"}}}
{"smiles": "OC[C@H]1O[C@H](O[C@H]2O[C@H](CO)[C@@H](O)[C@H](O)[C@H]2O)[C@H](O)[C@@H](O)[C@@H]1O", "note": "[trehalose]", "values": [{"measurement": "shape of dried blood cells after rehydration", "setting": "red blood cells", "value": "maintain shape after rehydration"}, {"measurement": "cell recovery rate (structurally intact RBCs) after freezing/thawing", "setting": "RBCs [1]; 200 mM trehalose with sonoporation", "value": "up to 85%"}, {"measurement": "recovery rate for frozen cells", "setting": "RBCs [1]; after small changes to the cell media composition, frozen cells", "value": "above 85%"}, {"measurement": "cell recovery rate (structurally intact RBCs) after freezing/thawing", "setting": "RBCs [1]; without sonoporation", "value": "less than 40%"}, {"measurement": "cell recovery 24 hours after sonication", "setting": "RBCs [2]", "value": "> 95", "unit": "%"}, {"measurement": "cell recovery rate (structurally intact RBCs) after freeze-drying/rehydration", "setting": "RBCs [3]; 200 mM trehalose with sonoporation, freeze-dried for 1 week", "value": "up to 12%"}, {"measurement": "recovery rate after freeze-drying, improved technique", "setting": "RBCs [3]; after small changes to the cell media composition and freeze-drying parameters", "value": "above 12%"}, {"measurement": "recovery after freeze-drying, initial experiments", "setting": "RBCs [3]; initial experiments (data not shown)", "value": "less than 8%"}, {"measurement": "cell recovery rate (structurally intact RBCs) after freeze-drying/rehydration", "setting": "RBCs [3]; without sonoporation, freeze-dried", "value": 0, "unit": "%"}]}
